Patent US12077503B2, “Substituted cyclic amides and their use as herbicides” (FMC CORPORATION, priority 2015, dated 2024)

Columns and labels:
Type in all cases: in vivo
[1] = test system: pigweed (Amaranthus retroflexus); experiment: Test A preemergence; settings: for Plant response rating, Pigweed: 125 g ai/ha, preemergence, 0 to 100 scale (0 no effect, 100 complete control); for Pigweed plant response rating (0 to 100 scale): Preemergence, 500 g ai/ha, 0 is no effect, 100 is complete control
Excerpt: (§1) Seeds of plant species selected from barnyardgrass (Echinochloa crus-galli), Kochia (Kochia scoparia), ragweed (common ragweed, Ambrosia elatior), ryegrass, Italian (Italian ryegrass, Lolium multiflorum), crabgrass, large (Digitaria sanguinalis), giant foxtail (Setaria faberii), green foxtail (Setaria viridis), morningglory (Ipomoea spp.), pigweed (Amaranthus retroflexus), velvetleaf (Abutilon theophrasti), wheat (Triticum aestivum), and corn (Zea mays) were planted into a blend of loam soil and sand and treated preemergence with a directed soil spray using test chemicals formulated in anon-phytotoxic solvent mixture which included a surfactant.
(§2) At the same time, plants selected from these crop and weed species and also blackgrass (Alopecurus myosuroides), and Galium (catchweed bedstraw, Galium aparine) were planted in pots containing the same blend of loam soil and sand and treated with postemergence applications of test chemicals formulated in the same manner. Plants ranged in height from 2 to 10 cm and were in the one- to two-leaf stage for the postemergence treatment. Treated plants and untreated controls were maintained in a greenhouse for approximately 10 d, after which time all treated plants were compared to untreated controls and visually evaluated for injury. Plant response ratings, summarized in Table A, are based on a 0 to 100 scale where 0 is no effect and 100 is complete control. A dash (-) response means no test result.

[2] = test system: giant foxtail (Setaria faberii); experiment: Test A preemergence; settings: for Plant response rating, Foxtail, Giant: 125 g ai/ha, preemergence, 0 to 100 scale (0 no effect, 100 complete control); for Foxtail, Giant plant response rating (0 to 100 scale): Preemergence, 500 g ai/ha, 0 is no effect, 100 is complete control
Excerpt: as §1, §2

[3] = test system: ryegrass, Italian (Italian ryegrass, Lolium multiflorum); experiment: Test A preemergence; settings: for Plant response rating, Ryegrass, Italian: 125 g ai/ha, preemergence, 0 to 100 scale (0 no effect, 100 complete control); for Ryegrass, Italian plant response rating (0 to 100 scale): Preemergence, 500 g ai/ha, 0 is no effect, 100 is complete control
Excerpt: as §1, §2

[4] = test system: barnyardgrass (Echinochloa crus-galli); experiment: Test A preemergence; settings: for Plant response rating, Barnyardgrass: 125 g ai/ha, preemergence, 0 to 100 scale (0 no effect, 100 complete control); for Barnyardgrass plant response rating (0 to 100 scale): Preemergence, 500 g ai/ha, 0 is no effect, 100 is complete control
Excerpt: as §1, §2

[5] = test system: ragweed (common ragweed, Ambrosia elatior); experiment: Test A preemergence; settings: for Plant response rating, Ragweed: 125 g ai/ha, preemergence, 0 to 100 scale (0 no effect, 100 complete control); for Ragweed plant response rating (0 to 100 scale): Preemergence, 500 g ai/ha, 0 is no effect, 100 is complete control
Excerpt: as §1, §2

[6] = test system: Kochia (Kochia scoparia); experiment: Test A preemergence; settings: for Plant response rating, Kochia: 125 g ai/ha, preemergence, 0 to 100 scale (0 no effect, 100 complete control); for Kochia plant response rating (0 to 100 scale): Preemergence, 500 g ai/ha, 0 is no effect, 100 is complete control
Excerpt: as §1, §2

[7] = test system: barnyardgrass (Echinochloa crus-galli); experiment: Test B flooded paddy test; settings: Flood, 250 g ai/ha; 0 to 100 scale where 0 is no effect and 100 is complete control; 13 to 15 d
Description: (§3) Plant species in the flooded paddy test selected from rice (Oryra sativa), sedge, umbrella (small-flower umbrella sedge, Cyperus difformis), ducksalad (Heteranthera limosa), and barnyardgrass (Echinochloa crus-galli) were grown to the 2-leaf stage for testing. At time of treatment, test pots were flooded to 3 cm above the soil surface, treated by application of test compounds directly to the paddy water, and then maintained at that water depth for the duration of the test. Treated plants and controls were maintained in a greenhouse for 13 to 15 d, after which time all species were compared to controls and visually evaluated. Plant response ratings, summarized in Table B, are based on a scale of 0 to 100 where 0 is no effect and 100 is complete control. A dash (-) response means no test result.

[8] = test system: sedge, umbrella (small-flower umbrella sedge, Cyperus difformis); experiment: Test B flooded paddy test; settings: Flood, 250 g ai/ha; 0 to 100 scale where 0 is no effect and 100 is complete control; 13 to 15 d
Description: as §3

[9] = test system: ducksalad (Heteranthera limosa); experiment: Test B flooded paddy test; settings: Flood, 250 g ai/ha; 0 to 100 scale where 0 is no effect and 100 is complete control; 13 to 15 d
Description: as §3

[10] = test system: rice (Oryra sativa); experiment: Test B flooded paddy test; settings: Flood, 250 g ai/ha; 0 to 100 scale where 0 is no effect and 100 is complete control; 13 to 15 d
Description: as §3

[11] = test system: pigweed (Amaranthus retroflexus); experiment: Test A postemergence
Excerpt: as §1, §2

[12] = test system: giant foxtail (Setaria faberii); experiment: Test A postemergence
Excerpt: as §1, §2

[13] = test system: ryegrass, Italian (Italian ryegrass, Lolium multiflorum); experiment: Test A postemergence
Excerpt: as §1, §2

[14] = test system: wheat (Triticum aestivum); experiment: Test A postemergence
Excerpt: as §1, §2

[15] = test system: corn (Zea mays); experiment: Test A postemergence
Excerpt: as §1, §2

[16] = test system: barnyardgrass (Echinochloa crus-galli); experiment: Test A postemergence
Excerpt: as §1, §2

[17] = test system: ragweed (common ragweed, Ambrosia elatior); experiment: Test A postemergence
Excerpt: as §1, §2

[18] = test system: Galium (catchweed bedstraw, Galium aparine); experiment: Test A postemergence
Excerpt: as §1, §2

[19] = test system: blackgrass (Alopecurus myosuroides); experiment: Test A postemergence
Excerpt: as §1, §2

[20] = test system: Kochia (Kochia scoparia); experiment: Test A postemergence
Excerpt: as §1, §2

[21] = 500 g ai/ha, postemergence, 0 to 100 scale, 0 no effect, 100 complete control
[22] = Postemergence, 125 g ai/ha, visual injury, 0 to 100 scale (0 no effect, 100 complete control), approx. 10 d

Row | SMILES | Plant response rating, Pigweed [1] | Pigweed plant response rating (0 to 100 scale) [1] | Plant response rating, Foxtail, Giant [2] | Foxtail, Giant plant response rating (0 to 100 scale) [2] | Plant response rating, Ryegrass, Italian [3] | Ryegrass, Italian plant response rating (0 to 100 scale) [3] | Plant response rating, Barnyardgrass [4] | Barnyardgrass plant response rating (0 to 100 scale) [4] | Plant response rating, Ragweed [5] | Ragweed plant response rating (0 to 100 scale) [5] | Plant response rating, Kochia [6] | Kochia plant response rating (0 to 100 scale) [6] | Plant response rating, Barnyardgrass [7] | Plant response rating, Sedge, Umbrella [8] | Plant response rating, Ducksalad [9] | Plant response rating, Rice [10] | Plant response rating, Pigweed [11, 21] | Plant response rating, Pigweed [11, 22] | Plant response rating, Foxtail, Giant [12, 21] | Plant response rating, Foxtail, Giant [12, 22] | other results
1 | Cc1cccc(C2CNC(=O)C2C(=O)Nc2ccccc2C(F)(F)F)c1 (racemic) [Compound 374] | 0 | 0 | 90 | 90 | 0 | 30 | 90 | 90 | 0 | 0 | 0 | 0 | 60 | 0 | 95 | 30 | 0 | 0 | 50 | 20 | Plant response rating, Ryegrass, Italian [13, 21]: 0; Plant response rating, Ryegrass, Italian [13, 22]: 0; Plant response rating, Wheat [14, 21]: 40; Plant response rating, Wheat [14, 22]: 0; Plant response rating, Corn [15, 21]: 20; Plant response rating, Corn [15, 22]: 0; Plant response rating, Barnyardgrass [16, 21]: 90; Plant response rating, Barnyardgrass [16, 22]: 80; Plant response rating, Ragweed [17, 21]: 0; Plant response rating, Ragweed [17, 22]: 0; Plant response rating, Galium [18, 21]: 40; Plant response rating, Galium [18, 22]: 0; Plant response rating, Blackgrass [19, 21]: 50; Plant response rating, Blackgrass [19, 22]: 0; Plant response rating, Kochia [20, 21]: 0; Plant response rating, Kochia [20, 22]: 0
2 | O=C1NCC(c2cccc(F)c2)C1C(=O)Nc1cccc(F)c1F (racemic) [Compound 375] | 20 | 70 | 90 | 90 | 20 | 50 | 90 | 90 | 0 | 70 | 20 | 70 | 70 | 0 | 100 | 30 | 50 | 20 | 90 | 90 | Plant response rating, Ryegrass, Italian [13, 21]: 20; Plant response rating, Ryegrass, Italian [13, 22]: 0; Plant response rating, Wheat [14, 21]: 80; Plant response rating, Wheat [14, 22]: 30; Plant response rating, Corn [15, 21]: 80; Plant response rating, Corn [15, 22]: 30; Plant response rating, Barnyardgrass [16, 21]: 90; Plant response rating, Barnyardgrass [16, 22]: 90; Plant response rating, Ragweed [17, 21]: 20; Plant response rating, Ragweed [17, 22]: 0; Plant response rating, Galium [18, 21]: 50; Plant response rating, Galium [18, 22]: 40; Plant response rating, Blackgrass [19, 21]: 70; Plant response rating, Blackgrass [19, 22]: 50; Plant response rating, Kochia [20, 21]: 60; Plant response rating, Kochia [20, 22]: 30
